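How tested: cells in 96-well plates exposed to compound for 48 hours at five concentrations. GI50 = concentration required for 50% inhibition of growth. TGI: concentration producing complete growth inhibition.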
Key:
Experiment in all cases: growth of human tumour cells (NCI), 48 h
NCI/ADR-RES ovarian = tested on: NCI/ADR-RES ovarian
IGROV1 ovarian = tested on: IGROV1 ovarian
K-562 leukemia = tested on: K-562 leukemia
ACHN renal = tested on: ACHN renal
NCI-H460 lung = tested on: NCI-H460 lung
LOX IMVI melanoma = tested on: LOX IMVI melanoma
KM12 colon = tested on: KM12 colon
MCF7 breast = tested on: MCF7 breast
MDA-MB-231 breast = tested on: MDA-MB-231 breast
SN12C renal = tested on: SN12C renal
SF-539 CNS = tested on: SF-539 CNS
HOP-92 NSCLC = tested on: HOP-92 NSCLC
MALME-3M melanoma = tested on: MALME-3M melanoma
M14 melanoma = tested on: M14 melanoma
A498 renal = tested on: A498 renal
HOP-62 NSCLC = tested on: HOP-62 NSCLC
HCT-116 colon = tested on: HCT-116 colon
RPMI-8226 leukemia = tested on: RPMI-8226 leukemia
SK-MEL-28 melanoma = tested on: SK-MEL-28 melanoma
SK-MEL-5 melanoma = tested on: SK-MEL-5 melanoma
SK-MEL-2 melanoma = tested on: SK-MEL-2 melanoma
DU-145 prostate = tested on: DU-145 prostate
MOLT-4 leukemia = tested on: MOLT-4 leukemia
HL-60(TB) leukemia = tested on: HL-60(TB) leukemia
NCI-H522 lung = tested on: NCI-H522 lung
HS 578T breast = tested on: HS 578T breast
NCI-H226 lung = tested on: NCI-H226 lung
OVCAR-5 ovarian = tested on: OVCAR-5 ovarian
SK-OV-3 ovarian = tested on: SK-OV-3 ovarian
SW-620 colon = tested on: SW-620 colon
786-0 renal = tested on: 786-0 renal
COLO 205 colon = tested on: COLO 205 colon
OVCAR-8 ovarian = tested on: OVCAR-8 ovarian
T-47D breast = tested on: T-47D breast
PC-3 prostate = tested on: PC-3 prostate
UACC-62 melanoma = tested on: UACC-62 melanoma
UO-31 renal = tested on: UO-31 renal
SR leukemia = tested on: SR leukemia
CCRF-CEM leukemia = tested on: CCRF-CEM leukemia
MDA-MB-435 = tested on: MDA-MB-435
SNB-19 CNS = tested on: SNB-19 CNS
RXF 393 renal = tested on: RXF 393 renal
CAKI-1 renal = tested on: CAKI-1 renal
BT-549 breast = tested on: BT-549 breast
HT29 colon = tested on: HT29 colon
NCI-H23 lung = tested on: NCI-H23 lung
SF-295 CNS = tested on: SF-295 CNS
HCT-15 colon = tested on: HCT-15 colon
SNB-75 CNS = tested on: SNB-75 CNS
TK-10 renal = tested on: TK-10 renal
U251 CNS = tested on: U251 CNS
HCC-2998 colon = tested on: HCC-2998 colon
OVCAR-4 ovarian = tested on: OVCAR-4 ovarian
OVCAR-3 ovarian = tested on: OVCAR-3 ovarian
SF-268 CNS = tested on: SF-268 CNS
A549 NSCLC = tested on: A549 NSCLC

## O=C(N=Nc1c(Cl)c(O)c2ccccc2c1O)C(=O)Nc1cccc(C(F)(F)F)c1
NCI/ADR-RES ovarian
  GI50: 3.52 µM
  TGI: 17.7 µM
IGROV1 ovarian
  GI50: 2.99 µM
  TGI: 21.4 µM
K-562 leukemia
  GI50: 3.94 µM
  TGI: 25.6 µM
ACHN renal
  GI50: 1.92 µM
  TGI: 7.12 µM
NCI-H460 lung
  GI50: 3.3 µM
  TGI: 12.4 µM
LOX IMVI melanoma
  GI50: 1.97 µM
  TGI: 5.09 µM
KM12 colon
  GI50: 5.45 µM
  TGI: 16.6 µM
MCF7 breast
  GI50: 1.84 µM
  TGI: 4.31 µM
MDA-MB-231 breast
  GI50: 1.6 µM
  TGI: 12.9 µM
SN12C renal
  GI50: 1.77 µM
  TGI: 3.79 µM
SF-539 CNS
  GI50: 3.51 µM
  TGI: 14.4 µM
HOP-92 NSCLC
  GI50: 1.98 µM
  TGI: 15.6 µM
MALME-3M melanoma
  GI50: 3.12 µM
  TGI: 7.64 µM
M14 melanoma
  GI50: 1.96 µM
  TGI: 4.1 µM
A498 renal
  GI50: 9.13 µM
  TGI: 23.6 µM
HOP-62 NSCLC
  GI50: 11.5 µM
  TGI: 24.7 µM
HCT-116 colon
  GI50: 1.83 µM
  TGI: 3.88 µM
RPMI-8226 leukemia
  GI50: 3.49 µM
  TGI: 15.6 µM
SK-MEL-28 melanoma
  GI50: 10.4 µM
  TGI: 23.3 µM
SK-MEL-5 melanoma
  GI50: 1.7 µM
  TGI: 3.98 µM
SK-MEL-2 melanoma
  GI50: 7.22 µM
  TGI: 20.5 µM
DU-145 prostate
  GI50: 2.73 µM
  TGI: 5.15 µM
MOLT-4 leukemia
  GI50: 2.93 µM
  TGI: 8.88 µM
HL-60(TB) leukemia
  GI50: 3.35 µM
  TGI: 10.2 µM
NCI-H522 lung
  GI50: 2.82 µM
  TGI: 10.9 µM
HS 578T breast
  GI50: 2.6 µM
  TGI: 8.6 µM
NCI-H226 lung
  GI50: 6.78 µM
  TGI: 28.2 µM
OVCAR-5 ovarian
  GI50: 14.7 µM
  TGI: 28.6 µM
SK-OV-3 ovarian
  GI50: 12.9 µM
  TGI: 26.7 µM
SW-620 colon
  GI50: 3.24 µM
  TGI: 15.6 µM
786-0 renal
  GI50: 12.6 µM
  TGI: 25.1 µM
COLO 205 colon
  GI50: 10.9 µM
  TGI: 24.6 µM
OVCAR-8 ovarian
  GI50: 3.39 µM
  TGI: 13.6 µM
T-47D breast
  GI50: 4.92 µM
  TGI: 41.3 µM
PC-3 prostate
  GI50: 3 µM
  TGI: 16.2 µM
UACC-62 melanoma
  GI50: 3.33 µM
  TGI: 16.2 µM
UO-31 renal
  GI50: 1.53 µM
  TGI: 12.2 µM
SR leukemia
  GI50: 3.08 µM
  TGI: 17.1 µM
CCRF-CEM leukemia
  GI50: 2.84 µM
  TGI: 8.77 µM
MDA-MB-435
  GI50: 1.89 µM
  TGI: 3.43 µM
SNB-19 CNS
  GI50: 4.6 µM
  TGI: 17.6 µM
RXF 393 renal
  GI50: 5.81 µM
  TGI: 18.8 µM
CAKI-1 renal
  GI50: 8.66 µM
  TGI: 23.7 µM
BT-549 breast
  GI50: 3.74 µM
  TGI: 12.5 µM
HT29 colon
  GI50: 6.44 µM
  TGI: 28 µM
NCI-H23 lung
  GI50: 2.67 µM
  TGI: 10.2 µM
SF-295 CNS
  GI50: 6.05 µM
  TGI: 19.7 µM
HCT-15 colon
  GI50: 3.21 µM
  TGI: 12 µM
SNB-75 CNS
  GI50: 3.06 µM
  TGI: 15.5 µM
TK-10 renal
  GI50: 14.2 µM
  TGI: 27.4 µM
U251 CNS
  GI50: 3.05 µM
  TGI: 10.9 µM
HCC-2998 colon
  GI50: 10.4 µM
  TGI: 22.9 µM
OVCAR-4 ovarian
  GI50: 6.03 µM
  TGI: 26.9 µM
OVCAR-3 ovarian
  GI50: 1.77 µM
  TGI: 4.64 µM
SF-268 CNS
  GI50: 3.37 µM
  TGI: 13 µM
A549 NSCLC
  GI50: 3.79 µM
  TGI: 16.7 µM
